US9315513B2, “Benzimidazole derivatives and their pharmaceutical compositions and uses” (XUANZHU PHARMA CO., LTD., priority 2010, dated 2016)
Several values for one entry are separate records, joined by “and”; a condition that tells them apart may be missing. Identical values can stand only once. Counter-ions that a name gives are not always drawn. Like-named read-outs stand apart in the source and are kept apart here. Values belong to the molecule of their own block, whether it stands above or below them.

What was measured:
[1] = test system: gastric acid in pylorus ligated rats; test: Inhibition effects on gastric acid in pylorus ligated rats; type: in vivo, Wistar rats; settings: for Inhibition effect on the gastric acid secretion in pylorus ligated rats (conclusion): in comparison with the solvent group
Protocol: Experimental animals: six-week old clean Wistar rats, male, 140-180 g.
Experimental samples: part of the compounds of the present invention, which structural formula and chemical name are shown in Table 1. […] Before test, these compounds were dissolved with physiological saline.
Pylorus was ligated by passing a suture beneath gastric pylorus, the drugs were immediately administered through duodenum, in which the solvent group was administered with physiological saline in 2 mL/kg, […] The animals were executed after 6 h, laparotomized, esophagus was ligated near to diaphragmatic muscle, whole stomach was taken out, washed to remove blood, stomach contents were poured out, the acidity degree of gastric acid was tested with pH test paper, the stomach contents was then centrifuged at 3000 rpm for 10 min. The volume of the supernatant was metered, and 1 mL of the supernatant was titrated with 0.01 mol/L NaOH solution, phenolphthalein was used as indicator, the volume of NaOH was recorded, and the total acidity degree and total acid output of gastric juice were calculated. Gastric juice total acidity degree (mmol/L)=consumed volume of NaOH solution (mL)*0.01 mol/L (NaOH concentration)/1 mL (supernatant volume)*1000; 1 h total acid output (mmol/h)=total acidity degree (mmol/L)*gastric juice volume (mL)/6 h/1000.

[2] = test system: reflux esophagitis in rats; test: Effects on reflux esophagitis in rats; type: in vivo, Wistar rats; design: Esophagitis index: scale not given here; settings: for Esophagitis index / Esophagus injury score / Injury status: 20 mg/kg through duodenum, 5 h; for Esophagitis index: 6 rats per group, average ± SD; for Esophagus injury score / Injury status: individual rats; for Protection effect on reflux esophagitis in rats (conclusion): in comparison with the model group
Protocol: The rats were etherized, laparotomized, pylorus ligated, and ligated at the part between glandular stomach and rumen. After ligation, the drugs were immediately administered through duodenum, in which the groups of the test samples were administered with test samples in 20 mg/kg, the model group was administered with the same volume of solvent, and the abdomens were then closed. The rats were released to the fasting cage, subjected to fasting and water deprivation for 5 h and then executed by air embolism. The stomach and esophagus were taken out together, fixed with 1% formaldehyde in esophagus for 1 h, and then the injury of esophagus was observed.

[3] = In vivo pharmacokinetic test in rats; design: species or system Wistar rats; settings: for clearance / half-life / Vd: iv
Protocol: Experimental animals: male Wistar rats, 6 rats/compound, body weight 180-220 g, purchased from Shandong University, certificate no.: SCXK ( ? ) 20090001.
Experimental samples: Compound 1, Compound 29 and Compound 30 of the present invention, each of them is prepared according to the methods of the above examples, and dissolved in physiological saline before test.
Administration: as for intravenous push (I.V), Compound 1, Compound 29, Compound 30 were administered in a dose of 5 mg/kg, and a volume of 2 mL/kg; as for intragastric administration (P.O), Compound 1, Compound 29, Compound 30 were administered in a dose of 5 mg/kg, and a volume of 2 mL/kg. The rats were fasted without water deprivation for […] administration, and fed after 4 hours from the administration.
Blood collection: 0 h, 0.083 h, 0.25 h, 0.5 h, 1 h, 2 h, 4 h, 8 h, 24 h, at each time point, about 150 μL of whole blood was collected, centrifuged at 4° C. and 8000 rpm for 6 min using a low-temperature high-speed centrifuge, the separated plasma was frozen and stored at −80° C. in a refrigerator.
Analysis of plasma samples: as for Compound 1, Compound 29, Compound 30, 50 μL of plasma was taken, added with 120 μL internal standard solution (Tolbutamide, 5 ng/mL MeOH solution), subjected to 1500 rpm vortex for 2 min, then centrifuged at 14000 rpm for 5 min, the supernatant was collected, and analyzed by using LC-MS/MS. Calculation formula: absolute bioavailability F %=[AUC]INF(PO)*Dose(IV)/[AUC]INF(IV)*Dose(PO)
Wherein, AUCINF represents area under drug-time curve0→∞; Cmax represents peak drug concentration in blood; Tmax represents a time for reaching peak drug concentration in blood; F % represents absolute bioavailability; CL represents clearance rate; Vss represents apparent volume of distribution; T1/2 represents half-life period.

gastric acid secretion = settings: cited from earlier work
gastric acid = settings: cited from earlier work
[4] = Table 3, 20 mg/kg through duodenum, 6 h after pylorus ligation
[5] = Table 3, 20 mg/kg through duodenum, 6 h after pylorus ligation, average ± SD
[6] = Table 4, 30 mg/kg through duodenum, 6 h
[7] = Table 4, 30 mg/kg through duodenum, 6 h, SD in neighbouring cell
[8] = Table 5, 20 mg/kg, comparison with Compound 81 as control
[9] = male, Wistar, rat, in vivo, 5 mg/kg
[10] = male, Wistar, rat, in vivo, po, 5 mg/kg

- clearance ([3]; male, Wistar, rat, plasma, rats, I.V, 5 mg/kg, read-out: CL (converted)): 32.5 mL/min/kg
- half-life ([3]; male, Wistar, rat, plasma, rats, I.V, 5 mg/kg, read-out: T½ (converted)): 10.3 min
- Vd ([3]; male, Wistar, rat, plasma, rats, I.V, 5 mg/kg, read-out: Vss): 0.255 L/kg
- bioavailability ([3]; male, Wistar, rat, plasma, po, rats, P.O 5 mg/kg vs I.V 5 mg/kg, read-out: F % (absolute bioavailability)): 26.2%
- AUC(0-inf) ([3]; male, Wistar, rat, plasma, po, rats, P.O, 5 mg/kg, read-out: AUCinf): 677 ng·h/mL
- Cmax ([3]; male, Wistar, rat, plasma, po, rats, P.O, 5 mg/kg, read-out: Cmax): 1860 ng/mL
- Tmax ([3]; male, Wistar, rat, plasma, po, rats, P.O, 5 mg/kg, read-out: Tmax): 4.98 to 15 min
Structure (SMILES): COCCCOc1ccnc(C[S+]([O-])c2nc3cc4c(cc3[nH]2)OCC4)c1C (stereo not shown) [Compound 1 (sodium salt)]
- Gastric juice volume [1, 4]: 3.33 ± 0.97 mL
- Total acid output [1, 4]: 0.0276 ± 0.0194 mmol/h
- Total acidity degree [1, 4]: 47.85 ± 24.38 mmol/L
- Acidity degree (pH value) [1, 5]: 3.14 ± 1.31 pH value
- Gastric juice volume [1, 6]: 3.60 ± 0.88 mL
- Volume of supernatant of gastric juice [1, 6]: 2.92 ± 0.71 mL
- Acidity degree (pH value) [1, 7]: 3.90 pH value
- Total acid output [1, 7]: 0.0141 mmol/h
- Total acidity degree [1, 7]: 28.98 mmol/L
- Total acidity degree [1, 8]: 54.52 ± 13.87 mmol/L
- Esophagitis index [2]: 0.00 ± 0.00
- Esophagus injury score ([2]; female rats): 0
- Injury status ([2]; female rats): Normal
- Esophagus injury score ([2]; male rats): 0
- Injury status ([2]; male rats): Normal

- In vivo pharmacokinetic properties (conclusion) ([3]; rat, in vivo): good in vivo pharmacokinetic properties
Structure (SMILES): COCCCOc1ccnc(C[S+]([O-])c2nc3cc4c(cc3[nH]2)OCC4)c1C (stereo not shown) [Compound 1, 2-[[4-(3-methoxylpropoxy)-3-methylpyridin-2-yl]methylsulfinyl]-6,7-dihydro-3H-benzofuro[5,6-d]imidazole]
- Inhibition effect on the gastric acid secretion in pylorus ligated rats (conclusion) ([1]; 20 mg/kg): significant inhibition effect
- Protection effect on reflux esophagitis in rats (conclusion) ([2]; 20 mg/kg): good protection effects on esophagus

Structure (SMILES): COCCCOc1ccnc(C[S+]([O-])c2nc3cc4c(cc3[nH]2)OCCO4)c1C (stereo not shown) [Compound 6 (sodium salt)]
- Gastric juice volume [1, 4]: 10.28 mL
- Total acid output [1, 4]: 0.0807 mmol/h
- Total acidity degree [1, 4]: 103.16 mmol/L
- Acidity degree (pH value) [1, 5]: 1.82 pH value
- Esophagitis index [2]: 3.00 ± 1.27
- Esophagus injury score ([2]; 20 mg/kg, female rats): 4 (4 scores for injury area exceeding 75% or perforation) and 2 (2 scores for injury area of 25-50%) and 1 (1 score for injury area of 1-25%)
- Esophagus injury score ([2]; 20 mg/kg, male rats): 3 (3 scores for injury area of 50-75%) and 4 (4 scores for injury area exceeding 75% or perforation) (2×)

Structure (SMILES): COCCCOc1ccnc(C[S+]([O-])c2nc3cc4c(cc3[nH]2)OCCO4)c1C (stereo not shown) [Compound 6, 2-[[4-(3-methoxylpropoxy)-3-methylpyridin-2-yl]methylsulfinyl]-6,7-dihydro-1H-[1,4]dioxino[2,3-f]benzo[d]imidazole]
- Inhibition effect on the gastric acid secretion in pylorus ligated rats (conclusion) ([1]; 20 mg/kg): do not show inhibition effect
- Protection effect on reflux esophagitis in rats (conclusion) ([2]; 20 mg/kg): no protection effect

Structure (SMILES): COc1c(C)cnc(C[S+]([O-])c2nc3cc4[nH]cnc4cc3[nH]2)c1C (stereo not shown) [Compound 8, 2-[(3,5-dimethyl-4-methoxylpyridin-2-yl)methylsulfinyl]-1H,5H-imidazo[5,4-f]benzo[d]imidazole]
- Inhibition effect on the gastric acid secretion in pylorus ligated rats (conclusion) ([1]; 20 mg/kg): do not show inhibition effect
- Gastric juice volume [1, 4]: 6.10 mL
- Total acid output [1, 4]: 0.1242 mmol/h
- Total acidity degree [1, 4]: 120.92 mmol/L
- Acidity degree (pH value) [1, 5]: 1.71 pH value

Structure (SMILES): COCCCOc1ccnc(C[S@+]([O-])c2nc3cc4c(cc3[nH]2)OCC4)c1C [Compound 29, (S)-2-[[[4-(3-methoxylpropoxy)-3-methyl-2-pyridyl]methyl]sulfinyl]-6,7-dihydro-3H-benzofuro[5,6-d]imidazole]
- Gastric juice volume [1, 6]: 3.43 ± 1.11 mL
- Volume of supernatant of gastric juice [1, 6]: 2.70 ± 1.04 mL
- Acidity degree (pH value) [1, 7]: 3.75 pH value
- Total acid output [1, 7]: 0.0178 mmol/h
- Total acidity degree [1, 7]: 37.85 mmol/L
- clearance ([3]; male, Wistar, rat, in vivo, rats, I.V, 5 mg/kg, read-out: CL (converted)): 21.4 mL/min/kg
- half-life ([3]; male, Wistar, rat, in vivo, rats, I.V, 5 mg/kg, read-out: T½ (converted)): 13.4 min
- Vd ([3]; male, Wistar, rat, in vivo, rats, I.V, 5 mg/kg, read-out: Vss): 0.289 L/kg
- bioavailability ([3]; male, Wistar, rat, in vivo, po, rats, P.O 5 mg/kg vs I.V 5 mg/kg, read-out: F % (absolute bioavailability)): 49.2%
- AUC(0-inf) ([3]; male, Wistar, rat, in vivo, po, rats, P.O, 5 mg/kg, read-out: AUCinf): 1740 ng·h/mL
- Cmax ([3]; male, Wistar, rat, in vivo, po, rats, P.O, 5 mg/kg, read-out: Cmax): 5780 ng/mL
- Tmax ([3]; male, Wistar, rat, in vivo, po, rats, P.O, 5 mg/kg, read-out: Tmax): 4.98 min
- apparent oral clearance (CL/F) ([3]; rats, P.O, 5 mg/kg): 53.77 mL/min/kg
- In vivo pharmacokinetic properties (conclusion) ([3]; rats, Tables 8 and 9): good in vivo pharmacokinetic properties

Structure (SMILES): COCCCOc1ccnc(C[S@@+]([O-])c2nc3cc4c(cc3[nH]2)OCC4)c1C [Compound 30 (sodium salt), (R)-2-[[[4-(3-methoxylpropoxy)-3-methyl-2-pyridyl]methyl]sulfinyl]-6,7-dihydro-3H-benzofuro[5,6-d]imidazole sodium]
- Gastric juice volume [1, 6]: 3.60 ± 1.30 mL
- Volume of supernatant of gastric juice [1, 6]: 2.87 ± 1.17 mL
- Acidity degree (pH value) [1, 7]: 6.08 pH value
- Total acid output [1, 7]: 0.0076 mmol/h
- Total acidity degree [1, 7]: 17.21 mmol/L
- Vd [3, 9]: 0.394 L/kg
- clearance [3, 9]: 26.5 mL/min/kg
- half-life [3, 9]: 16.5 min
- AUC(0-inf) [3, 10]: 1260 ng·h/mL
- CL [3, 10]: 83.5 mL/min/kg
- Cmax [3, 10]: 3250 ng/mL
- Tmax [3, 10]: 4.98 to 15 min
- bioavailability [3, 10]: 39.3%

Structure (SMILES): COCCCOc1ccnc(C[S@@+]([O-])c2nc3cc4c(cc3[nH]2)OCC4)c1C [Compound 30, (R)-2-[[[4-(3-methoxylpropoxy)-3-methyl-2-pyridyl]methyl]sulfinyl]-6,7-dihydro-3H-benzofuro[5,6-d]imidazole]
- In vivo pharmacokinetic properties (conclusion) ([3]; rats, Tables 8 and 9): good in vivo pharmacokinetic properties

Structure (SMILES): COc1c(C)cnc(C[S+]([O-])c2nc3cc4c(cc3[nH]2)OCO4)c1C (stereo not shown) [Compound 81, reference compound]
- Total acidity degree [1, 8]: 71.27 ± 16.51 mmol/L
- Esophagitis index [2]: 0.83 ± 1.60
- Protection effect on reflux esophagitis in rats (conclusion) ([2]; 20 mg/kg): no protection effect
- Injury status ([2]; 20 mg/kg): Normal
- Esophagus injury score ([2]; 20 mg/kg, female rats): 0 (2×) and 1 (1 score for injury area of 1-25%)
- Esophagus injury score ([2]; 20 mg/kg, male rats): 4 (4 scores for injury area exceeding 75% or perforation) and 0 (2×)

Structure (SMILES): COCCCOc1ccnc(C[S+]([O-])c2nc3ccccc3[nH]2)c1C (stereo not shown) [Rabeprazole]
- Activity against gastric acid secretion in vitro relative to Omeprazole (gastric acid secretion): 2-10 times
- Time to achieve the maximum acid inhibition effect (gastric acid): ≤ 5 min
- Duration of action (gastric acid; compared with Omeprazole): shorter than that of Omeprazole
